Measurements: the NIST ThermoML archive (doi:10.1016/j.jct.2006.01.012)

Details: Liquid; for viscosity: Capillary tube (Ostwald / Ubbelohde) method; for mass density: isochoric method

CCCCCCC [heptane]
Details | mass density [kg/m3] | viscosity [mPa·s]
298.24 K, 100 kPa | – | 0.388
302.46 K, 100 kPa | 675.91 | –
306.79 K, 5000 kPa | – | 0.3779
306.79 K, 10000 kPa | – | 0.4013
307.61 K, 4760 kPa | 676.1 | –
307.61 K, 11941 kPa | 683.2 | –
314.57 K, 100 kPa | 665.62 | –
323.93 K, 100 kPa | – | 0.2979
329.71 K, 100 kPa | 652.43 | –
337.54 K, 5000 kPa | – | 0.28
337.54 K, 10000 kPa | – | 0.2978
342.94 K, 100 kPa | 640.61 | –
348.64 K, 100 kPa | – | 0.2354
353.76 K, 100 kPa | 630.86 | –
369.35 K, 5000 kPa | – | 0.2116
369.35 K, 10000 kPa | – | 0.2259
387 K, 5783 kPa | 610 | –
387 K, 12460 kPa | 620.7 | –
407.85 K, 5000 kPa | – | 0.1595
407.85 K, 10000 kPa | – | 0.1718
449.64 K, 5000 kPa | – | 0.122
449.64 K, 10000 kPa | – | 0.1338
450.12 K, 4350 kPa | 543.7 | –
450.12 K, 11492 kPa | 564.4 | –
473.54 K, 5000 kPa | – | 0.1012
473.54 K, 10000 kPa | – | 0.113
500.47 K, 6791 kPa | 492.7 | –
500.47 K, 10720 kPa | 512.8 | –

CCCCCCCC [octane]
Details | mass density [kg/m3] | viscosity [mPa·s]
298.24 K, 100 kPa | – | 0.508
301.84 K, 100 kPa | 695.24 | –
308.72 K, 5000 kPa | – | 0.4786
308.72 K, 10000 kPa | – | 0.5043
311.89 K, 4680 kPa | 691.6 | –
311.89 K, 10642 kPa | 697.4 | –
316.49 K, 100 kPa | 683.55 | –
323.93 K, 100 kPa | – | 0.3829
329.76 K, 100 kPa | 672.69 | –
340.94 K, 100 kPa | 663.24 | –
348.64 K, 100 kPa | – | 0.3034
349.46 K, 5000 kPa | – | 0.3187
349.46 K, 10000 kPa | – | 0.3364
358.76 K, 100 kPa | 648.1 | –
367.61 K, 5873 kPa | 648.8 | –
367.61 K, 11461 kPa | 656.2 | –
394.81 K, 5000 kPa | – | 0.2197
394.81 K, 10000 kPa | – | 0.2334
436.86 K, 5000 kPa | – | 0.1672
436.86 K, 10000 kPa | – | 0.1799
437.97 K, 6430 kPa | 589.6 | –
437.97 K, 11084 kPa | 599.5 | –
467.46 K, 5000 kPa | – | 0.1338
467.46 K, 10000 kPa | – | 0.1458
516.64 K, 5712 kPa | 505.4 | –
516.64 K, 9791 kPa | 525.2 | –
